Key:
[1] = biological target: T1, human metabotropic glutamate 7 receptor (hmGlu7) (Homo sapiens, UniProt Q14831); assay: mGlu7 assay on HEK-expressing human mGlu7: fluorescent cell based Ca2+ mobilization assay (FLIPR), inhibition of EC80 L-AP4 response; settings: HEK-293 cells expressing hmGlu7; EC80 L-AP4 stimulation; mean of at least three independent experiments in duplicate; read-out: Ca2+ Flux (mean IC50)
T1 construct: expressed in transfected cells
Method in brief: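 HEK293 cells stably expressing hmGlu7 with a calcium-redirecting G protein were Fluo4-AM-loaded and assayed at pH 7.4 in HEPES buffer. Compounds were monitored for 180 s for agonism, then cells were challenged with EC80 L-AP4 for 110 s. IC50 was obtained from four-parameter fits, as the mean of ≥3 experiments run in duplicate.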

T1 sequence (Q14831 35-922 isoform Q14831-2): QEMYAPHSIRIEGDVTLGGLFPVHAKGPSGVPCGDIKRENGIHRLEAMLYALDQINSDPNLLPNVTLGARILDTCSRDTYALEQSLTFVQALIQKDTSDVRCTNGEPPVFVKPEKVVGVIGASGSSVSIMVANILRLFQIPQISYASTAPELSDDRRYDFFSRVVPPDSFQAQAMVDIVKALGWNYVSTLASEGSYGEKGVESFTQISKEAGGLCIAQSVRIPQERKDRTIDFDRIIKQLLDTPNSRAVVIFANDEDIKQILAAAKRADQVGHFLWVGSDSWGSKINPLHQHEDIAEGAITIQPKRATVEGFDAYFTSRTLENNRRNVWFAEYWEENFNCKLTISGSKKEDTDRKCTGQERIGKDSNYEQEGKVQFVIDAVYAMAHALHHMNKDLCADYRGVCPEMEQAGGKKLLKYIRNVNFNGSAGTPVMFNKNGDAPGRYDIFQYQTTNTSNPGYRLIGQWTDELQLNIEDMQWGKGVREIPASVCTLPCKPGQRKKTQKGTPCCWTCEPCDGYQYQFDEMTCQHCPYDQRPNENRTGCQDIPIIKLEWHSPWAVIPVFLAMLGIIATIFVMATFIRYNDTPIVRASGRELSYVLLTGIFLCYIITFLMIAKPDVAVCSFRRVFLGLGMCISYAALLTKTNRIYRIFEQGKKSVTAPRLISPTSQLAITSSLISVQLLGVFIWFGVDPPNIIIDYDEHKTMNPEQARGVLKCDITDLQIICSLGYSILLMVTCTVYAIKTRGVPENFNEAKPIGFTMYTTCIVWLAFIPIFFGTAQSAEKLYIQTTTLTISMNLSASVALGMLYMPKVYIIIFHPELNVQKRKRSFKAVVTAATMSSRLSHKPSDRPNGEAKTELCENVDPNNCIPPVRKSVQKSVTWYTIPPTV

| Structure (SMILES) | IC50 [1] [nM] | melting point [°C] |
| --- | --- | --- |
| CCN(CC)c1cccc(-n2c(C)c3cnn(-c4ccccn4)c(=O)c3c2C)c1 [1-100, 6-(3-(Diethylamino)phenyl)-5,7-dimethyl-2-(pyridin-2-yl)-2,6-dihydro-1H-pyrrolo[3,4-d]pyridazin-1-one] | 100 to 1000 | < 85 |
| Cc1c2cnn(-c3ccccc3)c(=O)c2c(C)n1-c1cccc(N2CCCC2)c1 [1-101, 5,7-Dimethyl-2-phenyl-6-(3-(pyrrolidin-1-yl)phenyl)-2,6-dihydro-1H-pyrrolo[3,4-d]pyridazin-1-one] | 100 to 1000 | 228 to 229 |
| Cc1c2cnn(-c3ncccn3)c(=O)c2c(C)n1-c1cccc(OC2CC2)c1Cl [1-215, 6-(2-Chloro-3-cyclopropoxyphenyl)-5,7-dimethyl-2-(pyrimidin-2-yl)-2,6-dihydro-1H-pyrrolo[3,4-d]pyridazin-1-one] | < 100 | 228 |
| COc1ccccc1-n1ncc2c(C)n(-c3ccc(C)cc3)c(C)c2c1=O [1-2, 2-(2-Methoxyphenyl)-5,7-dimethyl-6-p-tolyl-2,6-dihydro-1H-pyrrolo[3,4-d]pyridazin-1-one] | 100 to 1000 | 202 |
| Cc1c2cnn(-c3ccccn3)c(=O)c2c(C)n1-c1cccc(-n2nccn2)c1 [1-199, 6-(3-(2H-1,2,3-Triazol-2-yl)phenyl)-5,7-dimethyl-2-(pyridin-2-yl)-2,6-dihydro-1H-pyrrolo[3,4-d]pyridazin-1-one] | 100 to 1000 | 173 |
| Cc1c2cnn(-c3ccccn3)c(=O)c2c(C)n1-c1cccc(-c2ccccc2)c1 [1-76, 6-([1,1′-Biphenyl]-3-yl)-5,7-dimethyl-2-(pyridin-2-yl)-2,6-dihydro-1H-pyrrolo[3,4-d]pyridazin-1-one] | 100 to 1000 | 106 to 109 |
| COc1cccc(-n2c(C)c3cnn(-c4ccc(CN)cc4)c(=O)c3c2C)c1 [1-88, 2-(4-(Aminomethyl)phenyl)-6-(3-methoxyphenyl)-5,7-dimethyl-2,6-dihydro-1H-pyrrolo[3,4-d]pyridazin-1-one] | 100 to 1000 | 145 to 155 |
| COc1ccc(-n2ncc3c(C)n(-c4cccc(OC)c4)c(C)c3c2=O)nc1 [1-83] | 100 to 1000 | – |
| Cc1c2cnn(-c3cccc(F)c3)c(=O)c2c(C)n1-c1ccccc1 [1-10] | 100 to 1000 | – |
| COc1cnc(-n2ncc3c(C)n(-c4cccc(N5CCC5)c4)c(C)c3c2=O)nc1 [1-224] | < 100 | – |
| Cc1c2cnn(-c3ccccn3)c(=O)c2c(C)n1-c1cc(F)cc(N2CCC2)c1 [1-195] | < 100 | – |
| Cc1c2cnn(-c3ccc(I)cc3)c(=O)c2c(C)n1-c1cccc(N2CCC2)c1 [1-181] | 1000 to 10000 | – |
| Cc1c2cnn(-c3ccc(C(N)=O)cc3)c(=O)c2c(C)n1-c1ccccc1 [1-57] | 100 to 1000 | – |
| Cc1c2cnn(-c3cccnc3)c(=O)c2c(C)n1-c1ccccc1 [1-9] | 100 to 1000 | – |

Second part, the compound after the results:

| IC50 [1] [nM] | melting point [°C] | Structure (SMILES) |
| --- | --- | --- |
| 100 to 1000 | 202 to 204 | CC(=O)c1cccc(-n2c(C)c3cnn(-c4ccccc4)c(=O)c3c2C)c1 [1-36, 6-(3-Acetylphenyl)-5,7-dimethyl-2-phenyl-2,6-dihydro-1H-pyrrolo [3,4-d]pyridazin-1-one] |
| 1000 to 10000 | 95 to 97 | COc1cccc(-n2c(C)c3cnn(-c4cc(OC)ccn4)c(=O)c3c2C)c1 [1-123] |
| < 100 | 192 to 195 | COc1cccc(-n2c(C)c3cnn(-c4ccc(C(C)O)cc4)c(=O)c3c2C)c1 (stereo not shown) [1-138, 2-(4-(1-Hydroxyethyl)phenyl)-6-(3-methoxyphenyl)-5,7-dimethyl-2,6-dihydro-1H-pyrrolo[3,4-d]pyridazin-1-one] |
| 100 to 1000 | 150 to 154 | CNCc1ccc(-n2ncc3c(C)n(-c4cccc(OC)c4)c(C)c3c2=O)cc1 [1-109, 6-(3-Methoxyphenyl)-5,7-dimethyl-2-(4-((methylamino)methyl)phenyl)-2,6-dihydro-1H-pyrrolo[3,4-d]pyridazin-1-one] |
| 1000 to 10000 | 252 to 254 | Cc1c2cnn(-c3ccccc3)c(=O)c2c(C)n1-c1cccc(O)c1 [1-51, 6-(3-Hydroxyphenyl)-5,7-dimethyl-2-phenyl-2,6-dihydro-1H-pyrrolo[3,4-d]pyridazin-1-one] |
| < 100 | 103 to 108 | COc1cccc(-n2c(C)c3cnn(-c4ccc(C(C)(C)O)cc4)c(=O)c3c2C)c1 [1-135, 2-(4-(2-Hydroxypropan-2-yl)phenyl)-6-(3-methoxyphenyl)-5,7-dimethyl-2,6-dihydro-1H-pyrrolo[3,4-d]pyridazin-1-one] |
| 100 to 1000 | 226 | Cc1c2cnn(-c3ccccc3F)c(=O)c2c(C)n1-c1ccccc1 [1-21, 2-(2-Fluorophenyl)-5,7-dimethyl-6-phenyl-2,6-dihydro-1H-pyrrolo [3,4-d]pyridazin-1-one] |
| 100 to 1000 | 207 to 209 | COc1cccc(-n2c(C)c3cnn(-c4ccc(O)nc4)c(=O)c3c2C)c1 [1-131, 2-(6-Hydroxypyridin-3-yl)-6-(3-methoxyphenyl)-5,7-dimethyl-2,6-dihydro-1H-pyrrolo[3,4-d]pyridazin-1-one] |
| 100 to 1000 | 116 to 119 | COCCNc1cccc(-n2c(C)c3cnn(-c4ccccc4)c(=O)c3c2C)c1 [1-43, 6-(3-(2-Methoxyethylamino)phenyl)-5,7-dimethyl-2-phenyl-2,6-dihydro-1H-pyrrolo[3,4-d]pyridazin-1-one] |
| 100 to 1000 | 86 to 90 | CCOC(=O)c1cccc(-n2c(C)c3cnn(-c4ccccn4)c(=O)c3c2C)c1 [1-133] |
| 100 to 1000 | 97 to 99 | COc1cccc(-n2c(C)c3cnn(-c4ccc(C#N)cc4)c(=O)c3c2C)c1 [1-126] |
| < 100 | 213 to 215 | COc1cccc(-n2c(C)c3cnn(-c4ccccc4)c(=O)c3c2C)c1 [1-26, 6-(3-Methoxyphenyl)-5,7-dimethyl-2-phenyl-2,6-dihydro-1H-pyrrolo[3,4-d]pyridazin-1-one] |
| 1000 to 10000 | 190 to 192 | O=c1c2cn(-c3cccc(N4CCC4)c3)cc2cnn1-c1ccccn1 [1-188, 6-(3-(Azetidin-1-yl)phenyl)-2-(pyridin-2-yl)-2,6-dihydro-1H-pyrrolo[3,4-d]pyridazin-1-one] |
| 100 to 1000 | – | Cc1cccc(-n2c(C)c3cnn(-c4cccnc4)c(=O)c3c2C)c1 [1-40] |
| 100 to 1000 | – | Cc1c2cnn(-c3ccccn3)c(=O)c2c(C)n1-c1ccc(F)c(N2CCC2)c1 [1-192] |
| 100 to 1000 | – | COc1ccccc1-n1ncc2c(C)n(-c3cccc(N4CCC4)c3)c(C)c2c1=O [1-176] |
| 1000 to 10000 | – | Cc1c(O)cccc1-n1c(C)c2cnn(-c3ccc(N4CCOCC4)cc3)c(=O)c2c1C [1-220] |
| 1000 to 10000 | – | COCc1cccc(-n2c(C)c3cnn(-c4ccccn4)c(=O)c3c2C)c1 [1-107] |

Reference: patent US20240262833A1, “FUSED HETEROCYCLIC DERIVATIVES AS NEGATIVE ALLOSTERIC MODULATORS OF MGLU7 RECEPTOR” (Addex Pharma S.A., priority 2021, published 2024)
